Assay results from patent US20190307843A1, “SINGLE DOSE METHODS FOR PREVENTING AND TREATING FUNGAL INFECTIONS” (Cidara Therapeutics, Inc., priority 2016, published 2019).
Where two headings read alike, the source gives them in different places. Starred links: 1 amine or outer side, 2 acyl side, 3 side chain; linkers in the order of their positions; H or OH if unused. Positions of bridges follow the written chain, without caps; N, C: chain ends. Non-standard residues stand in square brackets, D forms with d. Residues, ends and D or L forms follow the SMILES beside them. *: point of attachment. Orn(4R-OH,5R-OCH2CH2NMe3+) = C[N+](C)(C)CCO[C@@H](N[*:3])[C@H](O)C[C@H](N[*:1])C(=O)[*:2]; pTerphenylCO(4''-OnC5H11) = CCCCCOc1ccc(-c2ccc(-c3ccc(C(=O)*)cc3)cc2)cc1; hTyr(3S-OH,4S-OH) = N[C@H](C(=O)O)[C@H](O)[C@@H](O)c1ccc(O)cc1; Pro(3S-OH,4S-Me) = C[C@H]1CN[C@H](C(=O)O)[C@H]1O; Hyp = O=C(O)[C@@H]1C[C@@H](O)CN1

Tested on: Candida auris strains
Experiment: Candida auris antifungal susceptibility testing (CLSI M27-A3), 38 strains
Type: cell-based
Conditions: Candidozyma auris, read-out: MIC

Structure (SMILES): CCCCCOc1ccc(-c2ccc(-c3ccc(C(=O)N[C@H]4C[C@@H](O)[C@@H](OCC[N+](C)(C)C)NC(=O)[C@@H]5[C@@H](O)[C@@H](C)CN5C(=O)[C@H]([C@@H](C)O)NC(=O)[C@H]([C@H](O)[C@@H](O)c5ccc(O)cc5)NC(=O)[C@@H]5C[C@@H](O)CN5C(=O)[C@H]([C@@H](C)O)NC4=O)cc3)cc2)cc1 [CD101] ({pTerphenylCO(4''-OnC5H11)}-[Orn(4R-OH,5R-OCH2CH2NMe3+)]T[Hyp][hTyr(3S-OH,4S-OH)]T[Pro(3S-OH,4S-Me)]; lactam 1-C)
- MIC (24 h, strain 1 VPCI 669/P/12, 24 h): 0.5 µg/mL
- MIC (24 h, strain 2 VCPI 671/P/12, 24 h): 0.5 µg/mL
- MIC (24 h, strain 3 VCPI 674/P/12, 24 h): 0.25 µg/mL
- MIC (24 h, strain 4 VCPI 683/P/12, 24 h): 0.5 µg/mL
- MIC (24 h, strain 5 VCPI 692/P/12, 24 h): 0.5 µg/mL
- MIC (24 h, strain 6 VCPI 712/P/12, 24 h): 0.25 µg/mL
- MIC (24 h, strain 7 VCPI 471/P/13, 24 h): 0.5 µg/mL
- MIC (24 h, strain 8 VCPI 475/P/13, 24 h): 0.5 µg/mL
- MIC (24 h, strain 9 VCPI 478/P/13, 24 h): 0.25 µg/mL
- MIC (24 h, strain 10 VCPI 479/P/13, 24 h): 0.25 µg/mL
- MIC (24 h, strain 11 VCPI 480/P/13, 24 h): 0.25 µg/mL
- MIC (24 h, strain 12 VCPI 482/P/13, 24 h): 0.25 µg/mL
- MIC (24 h, strain 13 VCPI 483/P/13, 24 h): 0.25 µg/mL
- MIC (24 h, strain 14 VCPI 1130/P/13, 24 h): 0.5 µg/mL
- MIC (24 h, strain 15 VCPI 1132/P/13, 24 h): 0.5 µg/mL
- MIC (24 h, strain 16 VCPI 1133/P/13, 24 h): 16 µg/mL
- MIC (24 h, strain 17 VCPI 105/P/14, 24 h): 0.25 µg/mL
- MIC (24 h, strain 18 VCPI 107/P/14, 24 h): 0.125 µg/mL
- MIC (24 h, strain 19 VCPI 510/P/14, 24 h): 0.25 µg/mL
- MIC (24 h, strain 20 VCPI 511/P/14, 24 h): 0.25 µg/mL
- MIC (24 h, strain 21 VCPI 512/P/14, 24 h): 0.25 µg/mL
- MIC (24 h, strain 22 VCPI 513/P/14, 24 h): 0.5 µg/mL
- MIC (24 h, strain 23 VCPI 514/P/14, 24 h): 0.5 µg/mL
- MIC (24 h, strain 24 VCPI 250/P/14, 24 h): 0.25 µg/mL
- MIC (24 h, strain 25 VCPI 265/P/14, 24 h): 16 µg/mL
- MIC (24 h, strain 26 VCPI 266/P/14, 24 h): 0.5 µg/mL
- MIC (24 h, strain 27 VCPI 462/P/14, 24 h): 16 µg/mL
- MIC (24 h, strain 28 VCPI 463/P/14, 24 h): 0.125 µg/mL
- MIC (24 h, strain 29 VCPI 467/P/14, 24 h): 0.25 µg/mL
- MIC (24 h, strain 30 VCPI 471a/P/14, 24 h): 16 µg/mL
- MIC (24 h, strain 31 VCPI 478/P/14, 24 h): 0.5 µg/mL
- MIC (24 h, strain 32 VCPI 518/P/14, 24 h): 0.5 µg/mL
- MIC (24 h, strain 33 VCPI 550/P/14, 24 h): 0.5 µg/mL
- MIC (24 h, strain 34 VCPI 714/P/14, 24 h): 0.25 µg/mL
- MIC (24 h, strain 35 VCPI 717/P/14, 24 h): 0.25 µg/mL
- MIC (24 h, strain 36 VCPI 1060/P/14, 24 h): 0.25 µg/mL
- MIC (24 h, strain 37 VCPI 74/P/15, 24 h): 0.25 µg/mL
- MIC (24 h, strain 38 VCPI 213/P/15, 24 h): 0.25 µg/mL
- MIC (48 h, strain 1 VPCI 669/P/12, 48 h): 0.5 µg/mL
- MIC (48 h, strain 2 VCPI 671/P/12, 48 h): 0.5 µg/mL
- MIC (48 h, strain 3 VCPI 674/P/12, 48 h): 0.25 µg/mL
- MIC (48 h, strain 4 VCPI 683/P/12, 48 h): 0.5 µg/mL
- MIC (48 h, strain 5 VCPI 692/P/12, 48 h): 0.5 µg/mL
- MIC (48 h, strain 6 VCPI 712/P/12, 48 h): 0.25 µg/mL
- MIC (48 h, strain 7 VCPI 471/P/13, 48 h): 0.5 µg/mL
- MIC (48 h, strain 8 VCPI 475/P/13, 48 h): 0.5 µg/mL
- MIC (48 h, strain 9 VCPI 478/P/13, 48 h): 0.25 µg/mL
- MIC (48 h, strain 10 VCPI 479/P/13, 48 h): 0.25 µg/mL
- MIC (48 h, strain 11 VCPI 480/P/13, 48 h): 0.25 µg/mL
- MIC (48 h, strain 12 VCPI 482/P/13, 48 h): 0.25 µg/mL
- MIC (48 h, strain 13 VCPI 483/P/13, 48 h): 0.25 µg/mL
- MIC (48 h, strain 14 VCPI 1130/P/13, 48 h): 0.25 µg/mL
- MIC (48 h, strain 15 VCPI 1132/P/13, 48 h): 0.25 µg/mL
- MIC (48 h, strain 16 VCPI 1133/P/13, 48 h): > 16 µg/mL
- MIC (48 h, strain 17 VCPI 105/P/14, 48 h): 0.25 µg/mL
- MIC (48 h, strain 18 VCPI 107/P/14, 48 h): 0.125 µg/mL
- MIC (48 h, strain 19 VCPI 510/P/14, 48 h): 0.25 µg/mL
